# Laboratory results from ChEMBL document CHEMBL4371065, “Design and synthesis of biaryloxazolidinone derivatives containing a rhodanine or thiohydantoin moiety as novel antibacterial agents against Gram-positive bacteria” (Bioorg Med Chem Lett, 2019).
# What was measured:
# [1] = test system: Staphylococcus aureus; assay: Antibacterial activity against Staphylococcus aureus ATCC 29213 by broth liquid microdilution method; type: functional
# [2] = test system: Staphylococcus aureus; assay: Antibacterial activity against methicillin-sensitive Staphylococcus aureus by broth liquid microdilution method; type: functional
# [3] = test system: Staphylococcus aureus; assay: Antibacterial activity against methicillin-resistant Staphylococcus aureus by broth liquid microdilution method; type: functional
# [4] = test system: Enterococcus faecalis; assay: Antibacterial activity against linezolid-resistant Enterococcus faecalis by broth liquid microdilution method; type: functional
# [5] = test system: Enterococcus faecium; assay: Antibacterial activity against vancomycin-resistant Enterococcus faecium by broth liquid microdilution method; type: functional
# [6] = test system: HepG2; assay: Cytotoxicity against human HepG2 cells after 48 hrs by MTT assay; type: cell-based; details: HepG2, 48 h
# [7] = test system: Enterococcus faecalis; assay: Antibacterial activity against clinical isolates of linezolid-resistant Enterococcus faecalis by broth liquid microdilution method; type: functional
# [8] = test system: Staphylococcus aureus; assay: Antibacterial activity against clinical isolates of methicillin-sensitive Staphylococcus aureus by broth liquid microdilution method; type: functional
# [9] = test system: Staphylococcus aureus; assay: Antibacterial activity against clinical isolates of methicillin-resistant Staphylococcus aureus by broth liquid microdilution method; type: functional
# [10] = molecular target: T1, MAO-A (Homo sapiens, UniProt P21397); assay: Inhibition of recombinant human full length N-terminal FLAG-tagged MAO-A expressed in sf9 cells at 30 uM preincubated for 15 mins followed by substrate addition and measured after 60 mins by luminescence assay relative to control
# T1 sequence (P21397 whole entry): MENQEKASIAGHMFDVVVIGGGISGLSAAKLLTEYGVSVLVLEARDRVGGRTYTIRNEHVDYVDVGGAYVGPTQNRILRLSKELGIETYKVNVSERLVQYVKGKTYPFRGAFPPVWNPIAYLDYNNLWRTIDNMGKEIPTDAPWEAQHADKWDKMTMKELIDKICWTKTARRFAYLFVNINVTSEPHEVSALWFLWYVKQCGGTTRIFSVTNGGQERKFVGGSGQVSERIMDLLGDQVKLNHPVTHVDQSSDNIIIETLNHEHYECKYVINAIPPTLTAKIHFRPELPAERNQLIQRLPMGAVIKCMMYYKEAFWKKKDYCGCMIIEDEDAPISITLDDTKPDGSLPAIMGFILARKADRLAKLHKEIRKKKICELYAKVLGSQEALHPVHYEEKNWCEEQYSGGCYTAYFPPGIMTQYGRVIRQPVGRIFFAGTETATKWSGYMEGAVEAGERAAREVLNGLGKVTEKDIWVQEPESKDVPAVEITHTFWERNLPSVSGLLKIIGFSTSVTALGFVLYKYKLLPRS
# [11] = test system: Enterococcus faecium; assay: Antibacterial activity against clinical isolates of vancomycin-resistant Enterococcus faecium by broth liquid microdilution method; type: functional
# [12] = test system: Enterococcus faecalis; assay: Potency index, ratio of linezolid MIC to compound MIC for clinical isolates of linezolid-resistant Enterococcus faecalis; type: functional
# [13] = test system: Enterococcus faecium; assay: Potency index, ratio of radezolid MIC to compound MIC for vancomycin-resistant Enterococcus faecium; type: functional
# [14] = test system: Staphylococcus aureus; assay: Potency index, ratio of radezolid MIC to compound MIC for Staphylococcus aureus ATCC 29213; type: functional
# [15] = test system: Staphylococcus aureus; assay: Potency index, ratio of radezolid MIC to compound MIC for methicillin-sensitive Staphylococcus aureus; type: functional
# [16] = test system: Enterococcus faecalis; assay: Potency index, ratio of radezolid MIC to compound MIC for linezolid-resistant Enterococcus faecalis; type: functional
SMILES,MIC [1],MIC [2],MIC [3],MIC [4],MIC [5],IC50 [6],MIC [7],MIC [8],MIC [9],"inhibition at 1 h, 30 µM [10]",MIC [11],Ratio [12],Ratio [13],Ratio [14],Ratio [15],Ratio [16]
CC(=O)NC[C@H]1CN(c2ccc(-c3ccc(/C=C4\NC(=S)N(C)C4=O)cc3)c(F)c2)C(=O)O1,0.5 µg/mL,0.5 µg/mL,0.5 µg/mL,0.5 µg/mL,0.5 µg/mL,–,–,–,–,–,–,–,–,–,–,–
CC(=O)NC[C@H]1CN(c2ccc(-c3ccc(/C=C4\SC(=S)N(C(C(=O)O)c5ccccc5)C4=O)cc3)c(F)c2)C(=O)O1 (stereo partly specified),1 µg/mL,1 µg/mL,1 µg/mL,1 µg/mL,1 µg/mL,–,–,–,–,–,–,–,–,–,–,–
CCN(CC)CCCN1C(=O)/C(=C/c2ccc(-c3ccc(N4C[C@H](CNC(C)=O)OC4=O)cc3F)cc2)NC1=S,0.125 µg/mL,0.125 µg/mL,0.125 µg/mL,0.125 µg/mL,0.125 µg/mL,91 µM,0.125 to 0.25 µg/mL,0.125 to 0.25 µg/mL,0.125 to 0.5 µg/mL,98%,0.25 to 0.5 µg/mL,64,–,–,–,–
CC(=O)NC[C@H]1CN(c2ccc(-c3ccc(CNCc4cnn[nH]4)cc3)c(F)c2)C(=O)O1 [RADEZOLID],0.5 µg/mL,0.5 µg/mL,0.5 µg/mL,0.5 µg/mL,0.5 µg/mL,–,–,–,–,–,–,–,–,–,–,–
CCCN1C(=O)/C(=C/c2ccc(-c3ccc(N4C[C@H](CNC(C)=O)OC4=O)cc3F)cc2)SC1=S,2 µg/mL,2 µg/mL,2 µg/mL,2 µg/mL,2 µg/mL,–,–,–,–,–,–,–,–,–,–,–
CC(=O)NC[C@H]1CN(c2ccc(-c3ccc(/C=C4\NC(=S)N(CCCN5CCCCC5)C4=O)cc3)c(F)c2)C(=O)O1,1 µg/mL,1 µg/mL,1 µg/mL,1 µg/mL,1 µg/mL,–,–,–,–,–,–,–,–,–,–,–
CC(=O)NC[C@H]1CN(c2ccc(-c3ccc(/C=C4\SC(=S)N(CC(=O)O)C4=O)cc3)c(F)c2)C(=O)O1,1 µg/mL,1 µg/mL,1 µg/mL,1 µg/mL,1 µg/mL,–,–,–,–,–,–,–,–,–,–,–
CCOC(=O)CN1C(=O)/C(=C/c2ccc(-c3ccc(N4C[C@H](CNC(C)=O)OC4=O)cc3F)cc2)NC1=S,1 µg/mL,1 µg/mL,1 µg/mL,1 µg/mL,1 µg/mL,–,–,–,–,–,–,–,–,–,–,–
CCN1C(=O)/C(=C/c2ccc(-c3ccc(N4C[C@H](CNC(C)=O)OC4=O)cc3F)cc2)SC1=S,0.25 µg/mL,0.25 µg/mL,0.25 µg/mL,0.5 µg/mL,0.5 µg/mL,–,–,–,–,–,–,–,–,–,–,–
CC(=O)NC[C@H]1CN(c2ccc(-c3ccc(/C=C4\SC(=S)N(C(C)C(=O)O)C4=O)cc3)c(F)c2)C(=O)O1 (stereo partly specified),1 µg/mL,1 µg/mL,1 µg/mL,1 µg/mL,1 µg/mL,–,–,–,–,–,–,–,–,–,–,–
CCCN1C(=O)/C(=C/c2ccc(-c3ccc(N4C[C@H](CNC(C)=O)OC4=O)cc3F)cc2)NC1=S,2 µg/mL,2 µg/mL,2 µg/mL,2 µg/mL,2 µg/mL,–,–,–,–,–,–,–,–,–,–,–
CC(=O)NC[C@H]1CN(c2ccc(-c3ccc(/C=C4\NC(=S)NC4=O)cc3)c(F)c2)C(=O)O1,0.125 µg/mL,0.125 µg/mL,0.125 µg/mL,0.125 µg/mL,0.125 µg/mL,61.7 µM,0.25 to 0.5 µg/mL,0.5 to 1 µg/mL,–,99%,0.25 to 0.5 µg/mL,–,–,–,–,–
CC(=O)NC[C@H]1CN(c2ccc(N3CCOCC3)c(F)c2)C(=O)O1 [LINEZOLID],1 µg/mL,1 µg/mL,1 µg/mL,> 16 µg/mL,2 µg/mL,> 25 µM,> 16 µg/mL,1 to 4 µg/mL,–,76%,1 to 4 µg/mL,–,–,–,–,–
CC(=O)NC[C@H]1CN(c2ccc(-c3ccc(/C=C4\NC(=S)N(C(C)C)C4=O)cc3)c(F)c2)C(=O)O1,1 µg/mL,1 µg/mL,1 µg/mL,0.5 µg/mL,0.5 µg/mL,–,–,–,–,–,–,–,–,–,–,–
CCN(CC)CCCN1C(=O)/C(=C/c2ccc(-c3ccc(N4C[C@H](CNC(C)=O)OC4=O)cc3F)cc2)SC1=S,0.5 µg/mL,0.5 µg/mL,0.5 µg/mL,0.5 µg/mL,0.5 µg/mL,–,–,–,–,–,–,–,–,–,–,–
CCN1C(=O)/C(=C/c2ccc(-c3ccc(N4C[C@H](CNC(C)=O)OC4=O)cc3F)cc2)NC1=S,0.25 µg/mL,0.25 µg/mL,0.25 µg/mL,0.25 µg/mL,0.25 µg/mL,–,–,–,–,–,–,–,–,–,–,–
CC(=O)NC[C@H]1CN(c2ccc(-c3ccc(/C=C4\SC(=S)NC4=O)cc3)c(F)c2)C(=O)O1,0.125 µg/mL,0.125 µg/mL,0.125 µg/mL,0.125 µg/mL,0.125 µg/mL,63.9 µM,1 to 2 µg/mL,1 to 2 µg/mL,–,99%,1 to 2 µg/mL,–,4,4,4,4
CC(=O)NC[C@H]1CN(c2ccc(-c3ccc(/C=C4\NC(=S)N(CCCN5CCOCC5)C4=O)cc3)c(F)c2)C(=O)O1,2 µg/mL,2 µg/mL,2 µg/mL,2 µg/mL,2 µg/mL,–,–,–,–,–,–,–,–,–,–,–
CCOC(=O)CN1C(=O)/C(=C/c2ccc(-c3ccc(N4C[C@H](CNC(C)=O)OC4=O)cc3F)cc2)SC1=S,1 µg/mL,1 µg/mL,1 µg/mL,1 µg/mL,1 µg/mL,–,–,–,–,–,–,–,–,–,–,–
CC(=O)NC[C@H]1CN(c2ccc(-c3ccc(/C=C4\SC(=S)N(CCCN5CCCCC5)C4=O)cc3)c(F)c2)C(=O)O1,1 µg/mL,1 µg/mL,1 µg/mL,1 µg/mL,1 µg/mL,–,–,–,–,–,–,–,–,–,–,–
CC(=O)NC[C@H]1CN(c2ccc(-c3ccc(/C=C4\SC(=S)N(C)C4=O)cc3)c(F)c2)C(=O)O1,0.25 µg/mL,0.25 µg/mL,0.25 µg/mL,0.25 µg/mL,0.25 µg/mL,–,–,–,–,–,–,–,–,–,–,–
